The record followed here is paper PMC4810081, “Venetoclax (ABT-199) Might Act as a Perpetrator in Pharmacokinetic Drug–Drug Interactions” (Pharmaceutics, 2016).

The target of series [1] is T1, OATP1B3 (Homo sapiens, UniProt Q9NPD5).
T1 construct: expressed in transfected cells; host or cells: HEK293 (HEK-OATP1B3; gift of D. Keppler)
Kind of series: OATP1B3 inhibition, 8-FcA uptake in HEK-OATP1B3 cells. The class given is in vitro ADME. As to the method:
HEK293 cells. For assessing inhibition of OATP1B1 and OATP1B3, the human embryonic kidney cell line HEK293 stably transfected with OATP1B1 (HEK-OATP1B1), OATP1B3 (HEK-OATP1B3), or the empty control vector (HEK293-VCG418) were used. Cells were cultured under standard cell culture conditions with DMEM supplemented with 10% FCS, 2 mM of glutamine, 100 U/mL of penicillin, 100 µg/mL of streptomycin sulfate, and 800 µg/mL of G418 to maintain over-expression. Cells were kindly provided by D. Keppler (German Cancer Research Centre, Heidelberg, Germany).
Inhibition of OATP1B1 and OATP1B3 was analyzed in HEK-OATP1B1 and HEK-OATP1B3 cells by quantifying the uptake of the fluorescent substrate 8-FcA by flow cytometry as described previously. HEK293-VCG418 cells were used as a control. Inhibition of OATPs leads to a reduced uptake of 8-FcA into the cells. Each experiment was performed at least in triplicate, and venetoclax was tested from 0.05 up to 100 µM.

In series [2] the test system is LS180 cells. Kind of series: Growth inhibition (proliferation) assay in LS180 cells. In kind it is cell-based. The settings on record: Homo sapiens, crystal violet staining. As to the method:
(§1) LS180 cells. The human colon adenocarcinoma cell line LS180 (available at ATCC, Manassas, VA, USA) is one of the standard models for investigating pregnane X receptor (PXR) and aryl hydrocarbon receptor (AhR) mediated induction and was thus used for induction experiments. Cells were cultured under standard cell culture conditions with DMEM supplemented with 10% FCS, 2 mM of glutamine, 100 U/mL of penicillin, 100 µg/mL of streptomycin sulfate, and 0.1 mM of nonessential amino acids.
Growth inhibition assays in LS180 cells were conducted to determine suitable maximum concentrations for the induction assay without profound antiproliferative effects. Proliferation was quantified by crystal violet staining of the surviving cells as described previously. Each experiment was performed at least in triplicate with n = 8 wells for each concentration (0.1–100 µM). The IC20 for proliferation inhibition by venetoclax was 8.4 ± 1.0 µM; thus, the maximum concentration for the induction assay was set to 10 µM, ensuring that about 80% of the cells will survive.

The nature of series [3]: Growth inhibition assay in L-MDR1 cells. The class given is cell-based, porcine. The settings on record: pig, L-MDR1 cells (LLC-PK1 over-expressing human ABCB1/P-gp). As to the method:
LLC-PK1 and L-MDR1 cells. […] L-MDR1 cells were kindly provided by A. H. Schinkel (The Netherlands Cancer Institute, Division of Experimental Therapy, Amsterdam, The Netherlands). The cells were cultured under standard cell culture conditions with medium M199 supplemented with 10% FCS, 2 mM of glutamine, 100 U/mL of penicillin, and 100 µg/mL of streptomycin sulfate. To maintain P-gp/ABCB1 expression the culture medium for L-MDR1 was supplemented with 0.64 µM of vincristine. One day before seeding the cells for the growth inhibition assay, both cell lines were fed with a vincristine-free culture medium. Growth inhibition assays in LS180 cells were conducted to determine suitable maximum concentrations for the induction assay without profound antiproliferative effects. Proliferation was quantified by crystal violet staining of the surviving cells as described previously. […] Growth inhibition assays in MDCKII, and their MRP2 or BCRP over-expressing counterparts ([…], MDCKII-BCRP) and in LLC-PK1 and the corresponding P-gp over-expressing cell line L-MDR1 were conducted to evaluate whether venetoclax sustains its efficacy in MDR cell lines.

Series [4] deals with CYP1A2. The series can be described thus: Induction assay, CYP1A2 mRNA by real-time RT-PCR in LS180 cells. The class given is in vitro ADME, human. The settings on record: four days, 10 µM. As to the method: as §1
(§2) For the induction experiments, LS180 cells were seeded in 75 cm^2 culturing flasks and incubated for three days. […]
(§3) RNA was isolated using the GenElute™ Mammalian Total RNA Miniprep Kit, and cDNA was synthesized with the RevertAid™ H Minus First Strand cDNA Synthesis Kit according to the manufacturer's instructions. mRNA expression was quantified by real-time RT-PCR with the LightCycler® 480 (Roche Applied Science, Mannheim, Germany) as described previously. […] Data were evaluated via calibrator-normalized relative quantification with efficiency correction using the LightCycler® 480 software version 1.5 (Roche Applied Science, Mannheim, Germany). […] The following target genes were quantified: CYP1A1, CYP1A2, CYP3A4, ABCB1, ABCC2, ABCG2, SLCO1B1 (coding for OATP1B1), UDP-glucuronosyltransferase 1A3 (UGT1A3), and UGT1A9.

For series [5], the system named is ABCB1. The series can be described thus: Induction assay, ABCB1 mRNA by real-time RT-PCR in LS180 cells. The settings on record: four days, at higher concentrations. The class given is in vitro ADME, human. Here is the method:
as §1, §2, §3
For orientation: In qPCR the cycle at which signal appears reflects the starting amount.

Series [6] concerns SLCO1B1. Kind of series: Induction assay, SLCO1B1 mRNA by real-time RT-PCR in LS180 cells. The class given is in vitro ADME, human. The settings on record: four days, at 5 µM. Here is the method:
as §1, §2, §3

Series [7] concerns ABCG2. Kind of series: Induction assay, ABCG2 mRNA by real-time RT-PCR in LS180 cells. The settings on record: four days, 0.01–10 µM. The class given is in vitro ADME, human. As to the method:
as §1, §2, §3

Series [8] deals with ABCC2. Kind of series: Induction assay, ABCC2 mRNA by real-time RT-PCR in LS180 cells. The class given is in vitro ADME, human. The settings on record: four days, 0.01–10 µM. As to the method:
as §1, §2, §3

In series [9] the test system is CYP1A2. Kind of series: Western blot of CYP1A2 protein expression in LS180 cells. The class given is in vitro ADME, human. The settings on record: four days. As to the method: For the induction experiments, LS180 cells were seeded in 75 cm^2 culturing flasks and incubated for three days. Cells were then treated with a culture medium containing venetoclax (0.01–10 µM) in quintuplicate for four consecutive days. Rifampicin (20 µM) served as a positive control for PXR-driven genes and culture medium as a negative control. All incubation solutions were adjusted to 0.02% DMSO. After harvesting, cells were split for RNA and protein extraction.
To exemplarily verify the effects of venetoclax on mRNA expression, protein expressions of P-gp and CYP1A2 were analyzed in triplicate by SDS polyacrylamide gel electrophoresis (SDS-PAGE) and Western blotting. In brief, cell lysates containing 20 µg protein were mixed with 5× sample buffer (containing Tris–HCl, SDS, DTT, bromophenol blue, and glycerol) and subjected to 10% SDS-PAGE. Afterwards, proteins were electrotransferred to nitrocellulose nitrate membranes. Blots were blocked by incubation for 20–40 min with 5% Slim-Fast® (w/v) in phosphate-buffered saline containing 0.1% Tween®20. […] Bands were visualized by enhanced chemiluminescence using the SuperSignal®West Pico Chemiluminescent Substrate Kit and recorded by FluorChem Q SA AlphaView Version 3.2.2, Cell Biosciences (Santa Clara, CA, USA).
For orientation: In western blotting, separated proteins are transferred to a membrane and probed.

One may read the IC50 as the point on the concentration scale where inhibition reaches its midpoint. One may read the IC20 as the concentration needed for an effect of 20%. Low values mean an effect from little substance, high ones a need for much substance.

T1 sequence (Q9NPD5 whole entry): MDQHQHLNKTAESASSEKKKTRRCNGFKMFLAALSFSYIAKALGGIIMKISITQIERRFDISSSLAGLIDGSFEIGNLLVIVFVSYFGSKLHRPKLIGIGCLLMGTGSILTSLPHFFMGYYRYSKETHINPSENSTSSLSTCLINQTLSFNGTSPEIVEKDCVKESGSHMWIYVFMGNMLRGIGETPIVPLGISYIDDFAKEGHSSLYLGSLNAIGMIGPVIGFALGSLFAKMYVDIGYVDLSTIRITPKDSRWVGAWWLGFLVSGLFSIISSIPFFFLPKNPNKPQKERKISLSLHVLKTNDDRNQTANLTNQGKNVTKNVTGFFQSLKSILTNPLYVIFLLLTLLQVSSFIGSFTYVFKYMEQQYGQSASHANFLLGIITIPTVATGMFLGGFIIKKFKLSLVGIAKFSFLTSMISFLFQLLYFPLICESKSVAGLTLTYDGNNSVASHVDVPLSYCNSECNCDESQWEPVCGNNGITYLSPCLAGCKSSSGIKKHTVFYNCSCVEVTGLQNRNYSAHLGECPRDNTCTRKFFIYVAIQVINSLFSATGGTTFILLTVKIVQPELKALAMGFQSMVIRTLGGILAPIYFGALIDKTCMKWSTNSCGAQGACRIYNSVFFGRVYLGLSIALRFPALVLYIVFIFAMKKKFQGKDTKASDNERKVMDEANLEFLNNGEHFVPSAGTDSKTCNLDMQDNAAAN

With `CC1(C)CCC(CN2CCN(c3ccc(C(=O)NS(=O)(=O)c4ccc(NCC5CCOCC5)c([N+](=O)[O-])c4)c(Oc4cnc5[nH]ccc5c4)c3)CC2)=C(c2ccc(Cl)cc2)C1` [Venetoclax], the concentration for half-maximal inhibition (IC50) in [1] was 26 ± 9.6 µM; in series [3] (with LY335979 (P-gp inhibitor), L-MDR1 + LY335979 (1 µM)) it was 25.7 ± 4.1 µM; in series [3] (L-MDR1, P-gp over-expressing) it was 53.1 ± 4.1 µM. This compound also registered an IC20 in series [2] of 8.4 ± 1 µM. Also, in series [4], the “mRNA expression of CYP1A2” value is given as “induced”. In addition, in series [5], the “mRNA expression of ABCB1” value is “suppressed”. For the same compound, the “mRNA expression of SLCO1B1” value in series [6] was “suppressed”. For the same compound, the “mRNA expression of ABCG2” value in series [7] was “unchanged”. For the same compound, the “mRNA expression of ABCC2” value in series [8] was “unchanged”. Further, the CYP1A2 protein expression entry in series [9] is “induction”.
